Test results from patent US4714701A, “Antiviral compounds” (Burroughs Wellcome Co., priority 1985, dated 1987).
Where two headings read alike, the source gives them in different places.

Experiments:
herpes simplex [1] = assay: Activity against herpes simplex (general statement); set-up: species or system herpes simplex virus
herpes simplex virus = assay: Anti-HSV activity, plaque reduction assay; assay type: cell-based
Experimental: The inhibiting effect of the compounds of Example 1 and 2 against herpes simplex virus were determined by the plaque reduction assay.

CMV = assay: Activity against CMV infections (general statement); set-up: species or system cytomegalovirus
EBV [2] = assay: Anti-EBV activity (method described by Nonogama l. Pagano, 1971); assay type: cell-based, Epstein-Barr virus; details: human gammaherpesvirus 4
Experimental: The inhibitory effect of the compound of Example 2 against EBV was determined by the method described by Nonogama l. Pagano, 1971, Nature: New Biology, Vol. 233, 103-104.

EBV [3] = assay: Activity against EBV infections (general statement); set-up: species or system Epstein-Barr virus
dogs = assay: Toxicity in dogs, intravenous route; assay type: in vivo, dog; details: 60 mg/kg/day
Experimental: The toxicity of the compound of Example 2 was determined by administering the compound to dogs at a dosage of 60 mg/kg/day, by the intravenous route.

herpes simplex [4] = details: prior art compound; cited from earlier work

Row | Compound | activity against herpes simplex (herpes simplex [1]) | IC50 (herpes simplex virus) [µM] | activity against CMV infections (CMV) | IC50 (EBV [2]) [µM] | activity against EBV infections (EBV [3]) | toxic effects (dogs) | activity against herpes simplex (herpes simplex [4])
1 | Nc1nc2c(nc(N)n2COC(CO)CO)c(=O)[nH]1 [Example 1, 8-Amino-9-[(2-hydroxy-1-hydroxymethylethoxy)methyl]guanine] | particularly high activity | 0.5 | – | – | – | – | –
2 | Nc1nc2c(nnn2COC(CO)CO)c(=O)[nH]1 [Example 2, 5-Amino-3,6-dihydro-3-[(2-hydroxy-1-hydroxymethylethoxy)methyl]-7H-1,2,3-triazolo[4,5-d]pyrimidin-7-one] | – | 27.4 | especially potent activity | 1 to 10 | especially potent activity | No toxic effects were noted | –
3 | Nc1nc2c(ncn2COCCO)c(=O)[nH]1 [acyclovir, 9-(2-hydroxyethoxymethyl)guanine] | – | – | – | – | – | – | particularly good activity
